Measurements taken from patent US10870633B2, “Types of C-3 substituted kynurenic acid derivatives with improved neuroprotective activity” (SZEGEDI TUDOMÁNYEGYETEM, priority 2016, dated 2020).
Where “and” joins values, the source holds several entries; their conditions need not be identical. Identical values can stand only once. Like-named read-outs stand apart in the source and are kept apart here.

How the values were obtained:
[1] = system: blood-brain barrier model (co-cultivation of primary rat brain endothelial cells, primary glia and brain microvascular pericyte cells); assay: Passage on the culture model of the blood-brain barrier (bidirectional permeability); format: in vitro ADME; conditions: for Papp A-B 30′ / Papp A-B 60′ / Papp B-A 30′ / Papp B-A 60′ / Passage through the blood-brain barrier compared to the 24/1 and 24/2 comparative compounds / Efflux ratio: Papp BA/PappAB: 10 μM; for Papp A-B 30′ / Papp A-B 60′: AB (from blood to brain) direction; for Papp A-B 30′ / Papp B-A 30′: sampling at 30 minutes; for Papp A-B 30′ / Papp A-B 60′ / Papp B-A 30′ / Papp B-A 60′: single replicates; for Papp A-B 60′ / Papp B-A 60′: sampling at 60 minutes; for Papp B-A 30′ / Papp B-A 60′: BA (from brain to blood) direction; for Passage through the blood-brain barrier compared to the 24/1 and 24/2 comparative compounds: FIG. 2; for Permeability grade in words: blood-brain barrier model
From the text: (§1) The blood-brain barrier model prepared by the co-cultivation of three cell types (primary rat brain endothelial cells, primary glia and brain microvascular pericyte cells) was used for the permeability experiments (Nakagawa S, Deli M A, Kawaguchi H, Shimizudani T, Shimono T, Kittel A, Tanaka K, Niwa M. Anew blood-brain barrier model using primary rat brain endothelial cells, pericytes and astrocytes. Neurochem Int. 2009 March-April; 54(3-4):253-63. doi: 10.1016/j.neuint.2008.12.002.; Veszelka S, Tóth A E, Walter F R, Datki Z, Mózes E, Fülöp L, Bozsó Z, Hellinger E, Vastag M, Orsolits B, Környei Z, Penke B, Deli M A. Docosahexaenoic acid reduces amyloid-β induced toxicity in cells of the neurovascular unit. J Alzheimers Dis. 2013; 36(3):487-501.).
(§2) Passage of the compounds of the invention was tested in two directions AB (“from blood to brain”) and BA (“from brain to blood”), in 10 μM concentration.
(§3) The permeability experiment took 60 minutes, with sampling at 30 and 60 minutes from the acceptor compartment.
(§4) The concentrations of the active substances passed through the endothelial cell layer were determined with mass spectrometry. By using the measured concentrations and the known data (volume, starting concentration) the clearance (μl) values, or from the clearance and volume data, by taking the surface and the time into consideration, the so-called permeability coefficients (papp, apparent permeability coefficient; measurement unit 10^−6 cm/s) were calculated, which provide the permeation rates of the compounds.

[2] = as above; format: in vitro ADME, rat; conditions: rat, 10 μM; for Papp A→B at 60 min, 10 μM / Papp A→B at 30 min, 10 μM: AB (from blood to brain) direction; for Papp B→A at 60 min, 10 μM / Papp B→A at 30 min, 10 μM: BA (from brain to blood) direction; for efflux ratio at 60 min, 10 μM: read-out: Efflux ratio: Papp BA/PappAB
From the text: as §1, §2, §3, §4

[3] = system: fEPSP from the stratum radiatum layer of the CA1 region of the hippocampus; assay: In vitro electrophysiology on hippocampal brain slices (fEPSP amplitude, CA1); format: cell-based, Wistar rats; conditions: for fEPSP amplitude, minutes 31-40 of recording (washing in phase): normalized to the averages of the amplitudes of the control phase, last 10 minutes of washing in; for fEPSP amplitude, minutes 61-70 of recording (washing off phase): after 200 μM, normalized to the control phase, last 10 minutes of recording
Method: In the course of our experiments young adult (200-250 g) male Wistar rats were used. Until the start of the experiments the animals were housed in the animal house of the Department of Physiology, Anatomy and Neuroscience, University of Szeged, in standard plastic cages, where 12-12 hours light-dark cycles, standard 23° C. temperature and free access to water and food were provided. In the course of the experiments we aimed at using a minimum number of animals and to cause them the smallest degree of suffering. In each case the principles relating to the care of laboratory animals, the animal care related protocol approved by the Hungarian Health Committee (1998), and the Decree of the Council of the European Communities of 22 Sep. 2010 (2010/63/EU) were followed.
The animals received Isoflurane (3% and then 1%) inhalation anaesthesia for the electrophysiological measurements. After ensuring that the animals were in a deep sleep phase (the paw withdrawal reflex occurring for squeezing stopped), they were decapitated. By incising the head skin and the underlying connective tissue the skull was exposed. Then incisions were made in longitudinal direction along the sagittal suture as well as in transversal direction along the suture coronalis, furthermore caudally therefrom in the right and left direction. After the opening the bregma coronalis incisions were made behind the bulbi and in front of the cerebellum, allowing the removal of the approx. 3 mm thick brain region, containing the hippocampus. From the middle part of the hippocampus 350 μm thick slices were prepared with vibratome (Leica VT1200S, Germany). The cutting was performed in artificial cerebrospinal fluid (aCSF), whose temperature was 4° C. maximum. The aCSF was composed of: 130 mM NaCl, 3.5 mM KCl, 1 mM NaH2PO4, 24 mM NaHCO3, 1 mM […], 3 mM MgSO4 and 10 mM D-glucose (Sigma, Germany). The cut slices were placed in recording aCSF of room temperature, whose composition differed only in the 3 mM CaCl2) and 1.5 MgSO4 concentrations from the one used for cutting. Both the cutting and the recording aCSF were oxygenated with carbogen (95% O2, 5% CO2), for providing the suitable and uninterrupted O2 supply. After the preparation of all the hippocampal slices the recording aCSF in the slice holder container was warmed to 34-35° C., and the brain slices were left to recover for one hour under these conditions in order to assure the proceeding of the regeneration processes started against the damages caused in the course of the slice-preparation. […]
For the electrophysiological recordings a concentric stainless steel electrode (Neuron elektród kft; Budapest, Hungary) was placed in the stratum radiatum layer between the CA3-CA1 regions of the hippocampus, wherein the stimulation was performed with constant current intensity, with 0.2 ms pulses of 0.033 Hz frequency. By positioning the recording electrodes of 2-3 MΩ filled with aCSF in orthodrom position from the previously mentioned region, stimulating postsynaptic field potentials (fEPSP) were conducted from the stratum radiatum layer of the CA1 region, and their amplitudes were monitored.
Submaximal stimulation was used, i.e. about 70-80% of the intensity of the smallest pulse causing the fEPSP of maximum amplitude was used. […] The results were evaluated with the OriginPro 8 (OriginLab Corporation, Northampton, Mass., USA) software. […]

[4] = Solubility compared to previously synthesized analogues (statement); format: physicochemical
[5] = average, n=6, read-out: Papp A-B Average
[6] = sampling at 60 minutes, single replicates, read-out: Papp A-B 60′
[7] = average, n=6, read-out: Papp B-A Average
[8] = sampling at 60 minutes, single replicates, read-out: Papp B-A 60′

| Passage through the blood-brain barrier compared to the 24/1 and 24/2 comparative compounds [1] | Papp A→B at 60 min, 10 μM [2, 5] | Papp A→B at 30 min, 10 μM ([2]; single replicates) | Papp A→B at 60 min, 10 μM [2, 6] | Papp B→A at 60 min, 10 μM [2, 7] | Papp B→A at 30 min, 10 μM ([2]; single replicates) | Papp B→A at 60 min, 10 μM [2, 8] | efflux ratio at 60 min, 10 μM [2] | Papp A-B 30′ [1] | Papp A-B 60′ [1] | Papp B-A 30′ [1] | Papp B-A 60′ [1] | Structure (SMILES) | further results |
| --- | --- | --- | --- | --- | --- | --- | --- | --- | --- | --- | --- | --- | --- |
| doubled | 11 ×10⁻⁶ cm/s | 7.4 ×10⁻⁶ cm/s | 12.4 ×10⁻⁶ cm/s | 5.4 ×10⁻⁶ cm/s | 2.5 ×10⁻⁶ cm/s | 7.6 ×10⁻⁶ cm/s | ~0.5 | – | – | – | – | Cl.O=C(O)c1nc2ccccc2c(O)c1CN1CCOCC1 [Example 5, 4-hydroxy-3-(morpholinomethyl)quinoline-2-carboxylic acid hydrochloride] | Papp A-B 30′ ([1]; hydrochloride): 8.9 10^−6 cm/s and 8.2 10^−6 cm/s; Papp A-B 60′ ([1]; hydrochloride): 15.4 10^−6 cm/s and 13.9 10^−6 cm/s; Papp B-A 30′ ([1]; hydrochloride): 4.0 10^−6 cm/s and 3.2 10^−6 cm/s; Papp B-A 60′ ([1]; hydrochloride): 7.8 10^−6 cm/s and 7.5 10^−6 cm/s; Permeability grade in words [1]: medium permeability |
| six times higher | 36.9 ×10⁻⁶ cm/s | 32.7 ×10⁻⁶ cm/s | 37.8 ×10⁻⁶ cm/s | 22 ×10⁻⁶ cm/s | 20.1 ×10⁻⁶ cm/s | 21.7 ×10⁻⁶ cm/s | ~0.5 | 37.2 10^−6 cm/s and 38.0 10^−6 cm/s | 37.4 10^−6 cm/s and 38.6 10^−6 cm/s | 21.8 10^−6 cm/s and 21.3 10^−6 cm/s | 23.2 10^−6 cm/s and 23.8 10^−6 cm/s | CN(C)CCNC(=O)c1nc2ccccc2c(O)c1CN1CCOCC1 [Example 16, N-(2-(dimethylamino)ethyl)-4-hydroxy-3-(morpholinomethyl)quinoline-2-carboxamide] | Permeability grade in words [1]: high permeability |
| – | – | – | – | – | – | – | – | – | – | – | – | CCN(CC)Cc1c(C(=O)NCCN2CCCC2)nc2ccccc2c1O [Example 17, 3-((diethylamino)methyl)-4-hydroxy-N-(2-(pyrrolidin-1-yl)ethyl)quinoline-2-carboxamide] | fEPSP amplitude, minutes 31-40 of recording (washing in phase) ([3]; 200 μM): 124.66±10.43%; fEPSP amplitude, minutes 61-70 of recording (washing off phase) [3]: 110.73±7.63% |
| triple | 18.6 ×10⁻⁶ cm/s | 16.4 ×10⁻⁶ cm/s | 16.9 ×10⁻⁶ cm/s | 25 ×10⁻⁶ cm/s | 22.3 ×10⁻⁶ cm/s | 24.9 ×10⁻⁶ cm/s | ~1 | 20.1 10^−6 cm/s and 17.9 10^−6 cm/s | 21.5 10^−6 cm/s and 18.8 10^−6 cm/s | 24.3 10^−6 cm/s and 25.1 10^−6 cm/s | 26.7 10^−6 cm/s and 26.6 10^−6 cm/s | O=C(NCCN1CCCC1)c1nc2ccccc2c(O)c1CN1CCOCC1 [Example 20, 4-hydroxy-3-(morpholinomethyl)-N-(2-(pyrrolidin-1-yl)ethyl)quinoline-2-carboxamide] | Solubility compared to previously synthesized analogues or other analogues with similar effect [4]: better solubility; fEPSP amplitude, minutes 31-40 of recording (washing in phase) ([3]; 200 μM): 58.14±10.16%; fEPSP amplitude, minutes 61-70 of recording (washing off phase) [3]: 107.14±17.99% |
| – | 5.7 ×10⁻⁶ cm/s | 5.4 ×10⁻⁶ cm/s | 7.2 ×10⁻⁶ cm/s | 8.8 ×10⁻⁶ cm/s | 8.3 ×10⁻⁶ cm/s | 12.2 ×10⁻⁶ cm/s | ~1 | 4.5 10^−6 cm/s and 7.4 10^−6 cm/s | 3.9 10^−6 cm/s and 5.8 10^−6 cm/s | 8.1 10^−6 cm/s and 4.2 10^−6 cm/s | 10.5 10^−6 cm/s and 9.2 10^−6 cm/s | Cl.O=C(NCCN1CCCC1)c1cc(O)c2ccccc2n1 [comparative 24/1, 4-hydroxy-N-(2-(pyrrolidin-1-yl)ethyl)quinoline-2-carboxamide, reference compound] | Efflux ratio: Papp BA/PappAB [1]: 1.5 |
| – | 6.7 ×10⁻⁶ cm/s | 4.2 ×10⁻⁶ cm/s | 6 ×10⁻⁶ cm/s | 8.1 ×10⁻⁶ cm/s | 7.6 ×10⁻⁶ cm/s | 9.7 ×10⁻⁶ cm/s | ~1 | 8.3 10^−6 cm/s and 6.4 10^−6 cm/s | 8.4 10^−6 cm/s and 6.7 10^−6 cm/s | 7.9 10^−6 cm/s and 7.2 10^−6 cm/s | 7.9 10^−6 cm/s and 8.5 10^−6 cm/s | CN(C)CCNC(=O)c1cc(O)c2ccccc2n1.Cl [comparative 24/2, N-(2-(dimethylamino)ethyl)-4-hydroxyquinoline-2-carboxamide, reference compound] | Efflux ratio: Papp BA/PappAB [1]: 1.2 |
| – | – | – | – | – | – | – | – | – | – | – | – | O=C(O)c1cc(O)c2ccccc2n1 [kynurenic acid, 4-hydroxy-quinoline-2-carboxylic acid] | fEPSP amplitude decrease in the last 10 minutes of the washing in phase ([3]; 200 μM, preliminary experimental results): 53.86±6.09% |
